Measurements: US8501722B2, “Methods and compositions for treating bacterial infection” (priority 2009, dated 2013)

Assays:
SKKanGAS = assay: Growth-based turbidometric screen, SKKanGAS under kanamycin (kanamycin resistance gene under ska promoter); assay type: cell-based, Group A Streptococcus; conditions: dose response under kanamycin selection, FIG. 11
Excerpt: A GAS strain was generated to have kanamycin resistance gene under the control of ski promoter to be used to screen for SK inhibitors. A transgenic GAS has been generated in SK(+)GAS host so that kanamycin resistance gene is driven by ska promoter in an extrachromosomal plasmid. The engineered GAS strain (SKKanGAS) was also kanamycin resistant. This kanamycin resistance gene in SK(−)GAS strain is within the omega-Km2 element whose promoter is independent of ska promoter (Khil et al., J. Infect. Dis. 2003; 188:497-505; Ringdahl et al., J. Biol. Chem. 1998; 273:6424-6430). As a result, SK(−)GAS can serve as a control in the screen for SK promoter to weed out compounds that inhibit GAS growth or interfere with kanamycin resistance protein function. […] A cutoff criterion was set to select compounds that can inhibit 50% growth in SKKanGAS while inhibiting less than 10% growth in SK(−)GAS. A total of 95 compounds met this criterion. As a result, these compounds were chosen for dose response assays and pIC50 of growth inhibition of each hit compound was then estimated. […] An example is given as FIG. 10.
Only SKKanGAS is used for screening in the primary screening. Briefly, 30 μl THY medium containing 20 μg/ml kanamycin is first plated into 384-well plates (384 microtiter plate, Corning #3701) and compounds are added into the wells. SKKanGAS strain is grown to OD600 nm=0.8. SKKanGAS is then diluted 12.5 fold into 20 μg/ml kanamycin THY medium. SKKanGAS mixture (10 μl) is added into each well of the 384-well plates. […] The plates are cultured at 37° C. for 16-20 hours. Growth of bacteria in each well is measured by absorbance at 600 nm. Z′>0.5, which is compatible with high throughput screening, has been typically obtained with the 384-well plate format in which 55,000 small compounds have been screened. […] SKKanGAS is a BSL2 level agent and can be stored at −80° C. SKKanGAS can be cultured at 37° C. in THY or Bill medium which is commercially available (Fisher Scientific, Pittsburgh, Pa.).
Once hit compounds have been identified by the primary screening, they are applied to dose response assays with both SKKanGAS and SK(−)GAS stains. SKKanGAS and SK(−)GAS are grown in 20 μg/ml kanamycin with serial dilution of hit compounds (DMSO final concentration=1% in THY medium). Plates are incubated at 37° C. for 15-20 hours in a climate controlled room (humidity 50%). The absorbance is measured at 600 nm. pIC50 of growth inhibition of each hit compound is then determined. Compounds that with at least 10 fold lower IC50 in SKKanGAS than SK(−)GAS strain are identified and subjected to secondary confirmatory assay. As a result, dose response assay identifies and eliminates most nonspecific compounds that may inhibit GAS growth or interfere with kanamycin resistance protein function.

SK(+)GAS (UMAA2616) = assay: Survival of human plasminogen transgenic (Tg+) mice infected with GAS; assay type: in vivo; conditions: 6*10^5 CFU SK(+)GAS; 5 μg per mouse intraperitoneally daily for 5 days, starting one day after infection
Protocol: To examine the in vivo efficacy of compounds CCGC, CCGE, and CCGF, Tg+ mice were first infected with 6*10^5 CFU SK(+)GAS, then injected with 5 μg of test compound per mouse intraperitoneally daily for 5 days, starting one day after infection. […] In some embodiments, small compound are delivered continuously through an ALZET® Osmotic Pump (DURECT Corporation, Cupertino, Calif.).
Tg+ mice are then used to test the efficacy of compounds in attenuating the virulence of GAS infection. 20 Tg+ mice are infected with 10^5 CFU of SK(+)GAS then injected with the estimated experimental doses of the compounds two hours later. Survival is monitored for 9 days, while a control group of Tg+ mice will be infected with SK(+)GAS injected with DMSO. The comparison of mortalities between the two groups is analyzed as described above in the toxicity test. Treating mice with compound post-infection helps avoid potential side-effects of toxic or growth inhibition of compound on SK(+)GAS at the time of infection. As a result, the effect of compound on mice survival is a more authentic reflection of the efficacy of compound on inhibiting GAS virulence. Possible scenarios include:
This example describes the in vivo efficacy of compound 575096. Human plasminogen transgenic mice (Tg+) were first infected with 10^5″^6 CFUUMAA2616, then injected with 5-30 lag of test compound per mouse intraperitoneally daily for 5 days, starting one day after infection.

COC(=O)c1ccccc1Sc1c(-c2ccccc2)nc2ccccn12 [CCGC]
effect on SKKanGAS and SK-GAS growth (SKKanGAS): specific inhibition of SKKanGAS growth under kanamycin selection
survival rate of Tg+ mice compared to DMSO control group (SK(+)GAS (UMAA2616)): No improvement

C=CCn1c(SCCCC)nc2c(c1=O)C1(CCCCC1)Cc1ccccc1-2 [CCGE]
effect on SKKanGAS and SK-GAS growth (SKKanGAS): specific inhibition of SKKanGAS growth under kanamycin selection
survival rate of Tg+ mice compared to DMSO control group (SK(+)GAS (UMAA2616)): significant improvement in survival rate

COc1cc(C=CC(=O)c2cc(C)c(C)cc2C)cc(OC)c1OC [CCGF]
effect on SKKanGAS and SK-GAS growth (SKKanGAS): specific inhibition of SKKanGAS growth under kanamycin selection
survival rate of Tg+ mice compared to DMSO control group (SK(+)GAS (UMAA2616)): trend toward improvement
